# Reference: BindingDB's records for doi:10.7270/Q2T43RJV (Nmmlsc, 2010)
# Biological target: Guanine nucleotide-binding protein G(o) subunit alpha (Homo sapiens, UniProt P09471)
# Experiment: RGS4-Galphao interaction regulators, SAR follow-up, biochemical, multiplexed bead assay, additional SAR round (AID 2829)
# Guanine nucleotide-binding protein G(o) subunit alpha, sequence (P09471 whole entry): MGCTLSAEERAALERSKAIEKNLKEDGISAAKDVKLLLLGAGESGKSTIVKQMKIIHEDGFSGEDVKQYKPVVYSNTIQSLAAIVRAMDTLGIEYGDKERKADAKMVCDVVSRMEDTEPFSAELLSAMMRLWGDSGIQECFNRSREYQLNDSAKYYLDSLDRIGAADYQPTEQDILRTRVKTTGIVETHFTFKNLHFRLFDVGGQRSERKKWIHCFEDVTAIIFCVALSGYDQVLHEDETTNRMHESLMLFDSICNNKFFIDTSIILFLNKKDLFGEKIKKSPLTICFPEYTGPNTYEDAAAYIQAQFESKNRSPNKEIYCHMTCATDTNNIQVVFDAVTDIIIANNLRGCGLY
row,EC50,Structure (SMILES)
1,> 30 µM,O=C(c1sc2cc([N+](=O)[O-])ccc2c1Cl)N1CCNCC1
2,> 30 µM,O=C(NCCCN1CCOCC1)c1sc2cc([N+](=O)[O-])ccc2c1Cl [3-chloranyl-N-(3-morpholin-4-ylpropyl)-6-nitro-1-benzothiophene-2-carboxamide]
3,> 30 µM,O=C(NCCCn1ccnc1)c1sc2cc([N+](=O)[O-])ccc2c1Cl [3-chloro-N-[3-(1-imidazolyl)propyl]-6-nitro-1-benzothiophene-2-carboxamide]
4,> 30 µM,NC(=O)c1sc2cc([N+](=O)[O-])ccc2c1Cl [KSC-1-100]
5,> 30 µM,Cc1ccc2c(Cl)c(C(=O)NCCCN3CCOCC3)sc2c1 [KUC103874N]
